Source: patent publication US20210347823A1, “METHODS OF PHYSICOCHEMICAL-GUIDED PEPTIDE DESIGN AND NOVEL PEPTIDES DERIVED THEREFROM” (Massachusetts Institute of Technology, priority 2018, published 2021)
Where no end group is shown, it is not given here.

Experiments:
human red blood cells = test: Hemolytic activity assay; assay type: cell-based; details: for HC50: concentration needed for 50% hemolysis, human RBC in PBS, room temperature, 1 h, 0.1-100 μmol L^−1
Procedure: (§1) FIGS. 6A-6B. Hemolysis and resistance to protease-mediated degradation of engineered peptides. FIG. 6A. Schematic of experimental design and hemolytic assay results of Pol-CP—NH2 and derivatives, where hemolytic activity was evaluated by incubating the peptides (0.1-100 μmol L^−1) with human red blood cells in PBS at room temperature for 1 h. Experiments were performed in triplicate, (*p<0.05). FIG. 6B. Resistance to degradation of Pol-CP—NH2 and analogs exposed to fetal bovine serum (FBS) proteases for 6 h. Experiments were done in triplicate.
Hemolytic Activity Assays. Human erythrocytes were collected and washed three times by centrifugation at 300×g with PBS (pH 7.4). After the last centrifugation, the cells were resuspended in PBS pH 7.4. Aliquots at a concentration of 0.1 to 100 ? mol L^−1 of the peptides were added to the 96-well microplate, where in each well containing 50 ? L of a suspension of erythrocytes to 0.4% in a phosphate saline buffer (10 mmol L^−1 Na2HPO4, 1.8 mmol L^−1 […], pH 7.4, 137 mmol L^−1 NaCl and 2.7 mmol L^−1KCl). After that, the samples were incubated at room temperature for 1 h. Hemolysis was determined by reading absorbance at 405 nm of each well in a bed of plates. 1% SDS in PBS solution was used as positive control (Shalel S. et al., J. Colloid Interface Sci. 252, 66-76 (2002); Love L. J. Cell. Comp. Physiol. 36, 133-148 (1950)) and as negative control was used PBS only. MHC was defined as the maximal non-hemolytic concentration.

[1] = tested on: Gram-positive bacteria, Gram-negative bacteria and fungi (twelve different strains); test: Liquid growth inhibition MIC against larger panel of microorganisms (MIC average); assay type: cell-based; details: average of MIC over twelve different strains
Excerpt: FIGS. 5A-5D. Antimicrobial activity of second-generation library of synthetic peptides. FIG. 5A. In vitro activity of Pol-CP—NH2 and second generation of analogs against Gram-positive bacteria (Micrococcus luteus, Staphylococcus aureus, Staphylococcus epidermidis and Bacillus megaterium), Funghi (Candida albicans and Candida tropicalis) and Gram-negative bacteria (Escherichia coli, Enterobacter cloacae and Serratia marcescens). Experiments performed in triplicates. FIG. 5B. MIC (μmol L^−1) average vs fH in TFE/Water solution. FIG. 5C. Graph correlating MIC (μmol L^−1) averages vs H and (FIG. 5D) MIC (μmol L^−1) averages vs μH, where dots above the dashed line represent peptides with lower activity and dots below the dashed line show peptides with higher activity compared to the wild-type, in which one can observe ranges of optimal activity in determined intervals of H and μH values.
Microorganisms. The following strains were used: Micrococcus luteus A270, Staphylococcus aureus ATCC29213, Staphylococcus epidermidis ATCC12228, Bacillus megaterium ATCC10778 Escherichia coli SBS 363, Enterobacter cloacae ®-12, Serratia marcescens ATCC4112, Candida albicans MDM8, Candida tropicalis IOC4560 from Instituto Butanta, Sao Paulo, Brazil, and Escherichia coli BL21, Pseudomonas aeruginosa PA14, Pseudomonas aeruginosa PA01 and Staphylococcus aureus ATCC12600 from Synthetic Biology Group at MIT.
MIC assays. The MIC assays were performed using the broth microdilution method (Wiegand I. et al., Protoc. 3, 163-175 (2008); de la Fuente-Núñez C. et al., Antimicrob. Agents Chemother. 56, 2696-2704 (2012)) in sterile 96-well polypropylene microtiter plates. Peptides were added to the plate as solutions in BM2 minimal medium in concentrations ranging from 0 to 128 ? mol L^−1, and the bacteria were inoculated at a final concentration of 5×10^5 CFU mL^−1 per well. The plates were incubated at 37° C. for 24 h. The MIC was defined as the lowest concentration of compound at which no growth was observed. Additional liquid growth inhibition assays were done in Peptone Broth (PB, 0.5% NaCl, 1% Peptone at pH 7.4) and Potato Dextrose Broth (Invitrogen) were used for antibacterial and antifungal assays, respectively. Briefly, bacteria or fungi were incubated with serial dilutions of polybia-CP and analogs (50-0.09 μmol L^−1) in a 96-well microplate at 37° C. The microbial growth was assessed by measurements in a model 354 Multiskan Ascent microplate reader at A595nm, after 18 and 24 h (bacteria and fungi, respectively) incubation on a model 347CD FANEM incubator. MIC was defined as the minimal inhibitory concentration that prevents 100% of the bacterial growth. All assays were done in triplicate.

[2] = tested on: HEK293 human embryonic kidney cells; test: Cytotoxicity assay (MTS); assay type: cell-based; details: for Cytotoxicity: HEK293, 48 h, MTS, peptides 0-64 μmol L^−1
Procedure: FIGS. 7A-7B. Cytotoxicity of engineered peptides. FIG. 7A. Schematic of the experimental design for cytotoxicity assays of Pol-CP—NH2 and derivatives against HEK293 human embryonic kidney cells. Briefly, cells were cultured in DMEM medium supplemented with FBS and antibiotics at 37° C. and 5% CO2. FIG. 7B. Results obtained by seeding HEK293 50,000 cells and incubating with peptides' solution (0-64 μmol L^−1) at 37° C. for 48 h. Cell viability was measured by MTS assay. All experiments were performed in triplicate.
Cytotoxicity assays. Human embryonic kidney 293 (HEK 293) cells were cultured in Dulbecco's Modified Eagle Medium (DMEM) supplemented with 10% Fetal Bovine Serum (FBS) and 1% penicillin-streptomycin at 37° C. in 5% CO2. The day before treatment, 50,000 HEK 293 cells were seeded into each well in 96-well plates. The peptides were added at concentrations ranging from 0 to 64 ? mol L^−1 and 48 h after exposure, cell viability was measured by means of MTS (dimethylthiazol-carboxymethoxyphenyl-sulfophenyl-tetrazolium) assay. Experiments were performed in triplicate for each condition.

[3] = tested on: E. coli BL21, P. aeruginosa PA01 and PA14, and S. aureus ATCC12600; test: In vitro antimicrobial activity against first set of bacteria (Ala-scan analogs); assay type: cell-based; details: Gram-positive and Gram-negative bacteria
Excerpt: FIGS. 2A-2E. Design, physicochemical features and activity of Pol-CP—NH2 and Ala-scan analogs. FIG. 2A. Theoretical physicochemical properties of interest of the wild type and Ala-scan analogs, where H denotes hydrophobicity, μH is the hydrophobic moment, q represents the net charge and P/N is the ratio of polar/non-polar residues in the sequence. Top to bottom, left to right the sequences correspond to SEQ ID NOs: 1-13. FIG. 2B. Schematic of the in vitro biological activity experimental design. Briefly, 10^4 bacterial cells and serially diluted peptides (0-128 μmol L^−1) were added to a 96-well plate and incubated at 37° C. One day after the exposure, the solution in each well was measured in a microplate reader (600 nm) to check inhibition of bacteria compared to the untreated controls and presented as heat maps of antimicrobial activities (μmol L^−1) against four bacteria strains: E. coli strain BL21, S. aureus strain ATCC12600 and P. aeruginosa strains PA01, and PA14. Assays were performed in triplicates. FIG. 2C. Graph correlating MIC (μmol L^−1) averages vs H and (FIG. 2D) MIC (μmol L^−1) averages vs μH, where dots […] the dashed line show peptides with higher activity compared to the wild type, in which one can observe ranges of optimal activity in determined intervals of H and μH values. FIG. 2E. […]

[4] = Stability assay in fetal bovine serum; assay type: in vitro ADME; details: for resistance to protease-mediated degradation: fetal bovine serum, 6 h
Procedure: as §1
Stability Assays. The stability assay was performed with GIBCO fetal bovine serum diluted to 25% in water. 20 ? L of a 10 mg mL^−1 peptide solution was added to 1 mL 25% serum solution and kept at 37° C. The experiments were made in triplicate and 100 ? L aliquots were taken at 0, 0.5, 1, 2, 4 and 6 h. 10 ? L of TFA was added to the aliquots and the new solution was kept at 5° C. for 10 min, after that it was centrifuged at 14,000 rpm for 15 min, according to Powell et al. (Powell M. F. et al., Pharm. Res. 10, 1268-1273 (1993)). The reaction kinetics was followed by liquid chromatography and the percentage of remaining peptide was calculated by integrating the peptide peak area.

Row | Compound | HC50 (human red blood cells) [µmol/L] | MIC Average [1] [µM] | Cytotoxicity [2] [µmol/L] | other results
1 | CC[C@H](C)[C@H](N)C(=O)N[C@@H](CC(C)C)C(=O)NCC(=O)N[C@H](C(=O)N[C@H](C(=O)N[C@@H](CC(C)C)C(=O)NCC(=O)N[C@@H](CC(C)C)C(=O)N[C@@H](CC(C)C)C(=O)N[C@@H](CCCCN)C(=O)N[C@@H](CO)C(N)=O)[C@@H](C)CC)[C@@H](C)O [Peptide 18] | >100.0 | >50.0 | – | –
2 | ILGTALGLLKSL-NH2 [Peptide 5, ILGTALGLLKSL-NH2] | – | – | >64.0 | –
3 | ILGTIAGLLKSL-NH2 [Peptide 6] | – | – | – | antimicrobial activity compared with wild type [3]: preserved the antimicrobial activity
4 | ILGTILGLLKAL-NH2 [Peptide 11, ILGTILGLLKAL-NH2] | – | – | 64.0 | –
5 | ILGTILALLKSL-NH2 [Peptide 7, ILGTILALLKSL-NH2] | – | – | 32.0 | –
6 | ILGTLLGLKKSL-NH2 [Peptide 13, ILGTLLGLKKSL-NH2] | >100.0 | >50.0 | – | –
7 | GLGTILGLLKSL-NH2 [Peptide 20, GLGTILGLLKSL-NH2] | >100.0 | 16.7 | >64.0 | resistance to protease-mediated degradation [4]: degraded in a few minutes
8 | ILATILGLLKSL-NH2 [Peptide 3, ILATILGLLKSL-NH2] | – | – | >64.0 | –
9 | ILGTILGLFKSL-NH2 [Peptide 17, ILGTILGLFKSL-NH2] | 50.0 | 20.0 | – | hemolytic activity (concentration at which hemolytic) (human red blood cells; human red blood cells, range evaluated 0-100 μmol L^−1, listed as [Phe]^9-Pol-CP—NH2): ~50 µmol/L; hemolytic activity (human red blood cells; range of concentrations evaluated 0-100 μmol L^−1): hemolytic
10 | ILGTKLGLLKSL-NH2 [Peptide 14, ILGTKLGLLKSL-NH2] | >100.0 | >50.0 | – | –
11 | ILGKILGLLKSL-NH2 [Peptide 15, ILGKILGLLKSL-NH2] | >100.0 | 3.3 | 32.0 | remaining at 6 h, 0.196 mg/mL ([4]; fetal bovine serum diluted to 25% in water, after six hours of exposure to fetal bovine serum, read-out: remaining peptide (% of initial concentration added)): ~50%; resistance to protease-mediated degradation [4]: increased resistance to protease-mediated degradation; cytotoxic concentration relative to MIC against P. aeruginosa ([2]; HEK293 cytotoxicity vs MIC): two- to four-fold higher
